From US4937249A, “Imide derivatives and their pharmaceutical use” (Sumitomo Pharmaceuticals Company, Limited, priority 1987, dated 1990) come the findings set out here.

What is called Ki is the equilibrium dissociation constant of an inhibitor or competing ligand from its target. One may read the ED50 as the dose at which the effect has come halfway, by size or by number of responders.

SMILES strings stand for the structures. Like-named read-outs stand apart in the source and are kept apart here.

The target of one assay is T1, dopamine D2 receptor (Bos taurus, UniProt P20288).
T1 construct: from tissue; host or cells: bovine corpus striatum, washed membrane fractions
The assay can be described thus: Dopamine D2 receptor binding assay (displacement of [3H] spiperone, membrane fractions of corpus striatum). Also on record: species or system bovine. Here is the method:
Fresh corpus striatum taken out from bovine brain was homogenized in a 20-fold dilution of Tris-HCl buffer solution (pH, 7.4; 0.05 M) and centrifuged (50,000×g) for 10 minutes to give the membrane fractions, which were washed with the same volume of the buffer solution twice to give the membrane fractions for assay.
Number of bindings specific to the D2 receptor in [^3 H] spiperone in a designed concentration of the test compound was measured according to the following equation and the IC50 and Ki was determined thereon on the basis of a hill plot: [formula] l: concentration of [^3 H] spiperone on assay KD : dissociation constant of [^3 H] spiperone
For orientation: Loss of bound radioactivity is the signal in a displacement assay; it reports binding, not function.

The test system of assay [1] is climbing behavior induced by apomorphine in mice. Put plainly: Anti-climbing activity (climbing behavior induced by apomorphine in mice). The class given is in vivo, mice (dd strain male). The following applies: Mus musculus, po. From the text: This activity was examined through the anticlimbing behavior test, i.e. the test for suppressing the climbing behavior induced by apomorphine in mice. A designed amount of the test compound was orally administered to several groups of dd strain male mice (bodyweight, 20 to 25 g; one group, 5 mice), and each of the animals was charged in an individual column cage of 12 cm in diameter and 14 cm in height having metal poles (each pole, 2 mm in diameter) vertically installed and arranged along the periphery with intervals of 1 cm. […]
0 All the paws were on the floor
1 Only forepaws seized the pole of the cage
2 All the paws seized the pole of the cage;
climbing behavior observed discontinu-
3 Continuous climbing behavior observed

The subject of another assay is 5-HT2 receptors. Put plainly: Anti-head twitching activity (anti-5-HT2 activity; 5-methoxytryptamine-induced head twitches in mice). It counts as in vivo, mice (dd strain male). The following applies: Mus musculus, po, nialamide 30 mg/kg i.p., 5-MT 2.5 mg/kg i.v., head twitches for 3 minutes. How it is done: It is known that the efficacy on the negative symptom can be evaluated through anti-5-hydroxytryptamine 2 (5-HT2) activity. […] Based on the above knowledges, test for measurement of head twitches in mice was carried out for evaluation of the anti-5-HT2 activity.

[2] abbreviates: 1 hr, apomorphine 1.0 mg/kg s.c., mice, read-out: ED50 (p.o.) 1 hr.

T1 sequence (P20288 whole entry): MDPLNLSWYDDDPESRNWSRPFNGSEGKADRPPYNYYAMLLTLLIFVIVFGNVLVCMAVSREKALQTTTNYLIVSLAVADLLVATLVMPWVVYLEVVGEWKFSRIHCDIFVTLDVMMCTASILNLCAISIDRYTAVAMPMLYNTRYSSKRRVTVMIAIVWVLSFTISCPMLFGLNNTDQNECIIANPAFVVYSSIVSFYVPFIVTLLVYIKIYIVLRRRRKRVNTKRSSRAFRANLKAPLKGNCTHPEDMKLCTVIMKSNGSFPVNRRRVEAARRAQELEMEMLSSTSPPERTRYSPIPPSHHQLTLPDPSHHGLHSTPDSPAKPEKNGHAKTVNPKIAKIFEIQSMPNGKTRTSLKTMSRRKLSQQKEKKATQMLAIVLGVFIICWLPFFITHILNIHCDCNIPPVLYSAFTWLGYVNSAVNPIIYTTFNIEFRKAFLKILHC

With `O=C1C2CCCCC2C(=O)N1CCCCN1CCC(c2noc3cc(F)ccc23)CC1` (stereo not drawn) [Example 1, N-[4-{4-(6-Fluoro-1,2-benzisoxazol-3-yl)piperidinyl}butyl]cyclohexane-1,2-dicarboximide], the Ki at dopamine D2 receptor ([3H] spiperone 1 nM, 37° C., 30 minutes, bovine corpus striatum membranes, read-out: Ki) came to 370 pM. In addition, the median effective dose (ED50) in assay [1] (setting [2]) is 0.92 mg/kg; in assay [1] (4 hrs, apomorphine 1.0 mg/kg s.c., mice, read-out: ED50 (p.o.) 4 hrs) it was 2.3 mg/kg; with 5-HT2 receptors, 0.3 to 1 mg/kg.
`O=C1CC2(CCCC2)CC(=O)N1CCCCN1CCN(c2nsc3ccccc23)CC1` [Tiaspirone, 8-[4-(3-benzisothiazolyl)-1-piperazinylbutyl]-8-azaspiro[4,5]decane-7,9-dione]: on dopamine D2 receptor, the inhibitory constant (Ki) was found to be 500 pM. Moreover, the figures for the ED50 (in assay [1] (setting [2]); in the assay with 5-HT2 receptors) were 9.4 mg/kg and 4 mg/kg, respectively.
Consider `CN(C)CCCN1c2ccccc2Sc2ccc(Cl)cc21` [Chlorpromazine, 2-chloro-10-(3-dimethylaminopropyl)-phenothiazine], for which the ED50 in assay [1] (1 h, read-out: ED50 (p.o.) 1 hr) came to 1.8 mg/kg; in assay [1] (4 h, read-out: ED50 (p.o.) 4 hrs) it was 8.8 mg/kg.
